Data on eight compounds can be found in PMC6017736, “Indole-3-Carbonitriles as DYRK1A Inhibitors by Fragment-Based Drug Design” (Molecules : A Journal of Synthetic Chemistry and Natural …, 2018).

SMILES strings stand for the structures. Marks after values point to notes of the source that are not given here.

In data set [1] the target is CLK4 (Mus musculus, UniProt O35493). Kind of data set: Protein kinase assay ([γ-33P]-ATP, RS peptide substrate), CLK4. In kind it is biochemical. The note with it: 15 µM ATP. The method, then:
(§1) DYRK1A, 1B, 2, 3 (human, recombinant, expressed in E. coli as GST fusion proteins) and CLK1, 2, 3, and 4 (mouse, recombinant, expressed in E. coli as GST fusion proteins) were assayed as described for GSK-3 in Buffer A (supplemented extemporaneously with 0.15 mg BSA/mL + 1 mM DTT) with 1 µg of RS peptide ([…]) as a substrate.

Data set [2] concerns the target DYRK1B (Homo sapiens, UniProt Q9Y463). The data set can be described thus: Protein kinase assay ([γ-33P]-ATP, RS peptide substrate), DYRK1B. In kind it is biochemical. As to conditions: 15 µM ATP; read-out: IC50 DYRK 1B. The method, then: as §1
Data set [3] deals with CLK2 (Mus musculus, UniProt O35491). Kind of data set: Protein kinase assay ([γ-33P]-ATP, RS peptide substrate), CLK2. Format: biochemical. As to conditions: for IC50: 15 µM ATP. The method, then:
as §1

Data set [4] deals with T1, DYRK3 (Homo sapiens, UniProt O43781).
T1 sequence (O43781 1-588): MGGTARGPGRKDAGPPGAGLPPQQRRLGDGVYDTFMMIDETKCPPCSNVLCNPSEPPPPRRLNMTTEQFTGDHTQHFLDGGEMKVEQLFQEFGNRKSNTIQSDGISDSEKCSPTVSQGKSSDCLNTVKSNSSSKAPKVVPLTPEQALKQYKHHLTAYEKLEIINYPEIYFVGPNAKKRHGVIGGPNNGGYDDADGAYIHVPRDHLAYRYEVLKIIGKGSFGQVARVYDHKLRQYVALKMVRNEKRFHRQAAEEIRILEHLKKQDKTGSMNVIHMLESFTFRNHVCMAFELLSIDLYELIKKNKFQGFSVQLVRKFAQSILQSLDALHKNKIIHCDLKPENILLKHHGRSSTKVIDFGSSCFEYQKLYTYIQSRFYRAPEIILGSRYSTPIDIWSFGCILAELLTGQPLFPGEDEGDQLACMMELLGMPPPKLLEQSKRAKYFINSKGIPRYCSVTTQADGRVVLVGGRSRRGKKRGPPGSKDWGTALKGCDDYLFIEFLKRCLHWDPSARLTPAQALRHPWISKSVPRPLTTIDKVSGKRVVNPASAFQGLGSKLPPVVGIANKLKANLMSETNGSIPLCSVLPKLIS
The data set can be described thus: Protein kinase assay ([γ-33P]-ATP, RS peptide substrate), DYRK3. The note with it: for IC50: 15 µM ATP; for inhibition at 10 µM: 10 µM compound, read-out: Inhibition at 10 µM DYRK3 (class symbol). In kind it is biochemical. The method, then:
as §1

Data set [5] addresses CLK3 (Mus musculus, UniProt O35492). Kind of data set: Protein kinase assay ([γ-33P]-ATP, RS peptide substrate), CLK3. As to conditions: for IC50: 15 µM ATP; for inhibition at 10 µM: 10 µM compound, read-out: Inhibition at 10 µM CLK3 (class symbol). Format: biochemical. How it is done:
as §1

The target of data set [6] is CLK1 (Mus musculus, UniProt P22518). Kind of data set: Protein kinase assay ([γ-33P]-ATP, RS peptide substrate), CLK1. Format: biochemical. The note with it: 15 µM ATP. How it is done: as §1
CLK1, sequence (P22518 whole entry): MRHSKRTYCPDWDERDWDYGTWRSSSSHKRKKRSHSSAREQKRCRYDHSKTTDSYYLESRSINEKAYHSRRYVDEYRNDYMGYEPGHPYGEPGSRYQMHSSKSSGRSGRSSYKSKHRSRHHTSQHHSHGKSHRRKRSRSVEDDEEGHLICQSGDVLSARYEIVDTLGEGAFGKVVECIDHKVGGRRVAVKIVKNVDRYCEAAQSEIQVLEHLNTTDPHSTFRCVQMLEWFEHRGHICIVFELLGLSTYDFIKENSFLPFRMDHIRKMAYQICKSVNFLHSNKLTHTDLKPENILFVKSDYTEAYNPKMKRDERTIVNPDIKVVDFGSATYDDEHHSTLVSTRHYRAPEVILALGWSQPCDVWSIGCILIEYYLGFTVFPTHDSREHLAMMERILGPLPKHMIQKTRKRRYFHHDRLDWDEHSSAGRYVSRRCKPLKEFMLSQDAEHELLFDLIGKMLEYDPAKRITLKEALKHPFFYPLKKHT
Data set [7] can be described thus: Thermodynamic solubility, shake-flask method with HPLC quantification. Format: physicochemical. As to conditions: phosphate buffer pH 7.4, 25 °C. The method, then: For solubility assays an aqueous phosphate buffer pH 7.4 was used. The buffer was prepared by dissolving Na2HPO4 × 2 H2O (298 mg), KH2PO4 (19 mg) and NaCl (800 mg) in water (100 mL). The pH was adjusted to 7.4 by addition of hydrochloric acid. The thermodynamic solubility was determined using a shake-flask method with quantification by a HPLC method. The test compounds (500 µg) were incubated with aqueous phosphate buffer pH 7.4 (400 µL) in sealed Whatman MiniUniPrep vials (GE Healthcare, Freiburg, Germany). The mixtures were shaken at 25 °C and 400 rpm for 24–96 h (IKA KS 3000 ic control, IKA-Werke, Staufen, Germany). After 24 h, 48 h and 72 h, the mixtures were visually inspected for remaining solids and the solids were filtered off. The concentrations in the resulting saturated solutions were quantified by isocratic HPLC using calibration with external standard. If equilibrium was not reached after 72 h, solubility of a further sample was determined after 96 h. For calibration, a stock solution of 10 mM of the test compounds in DMSO was prepared and the stock solution was diluted with ACN to suitable concentrations. The AUC at the wavelength maxima was used for quantification.

The target of data set [8] is T2, DYRK2 (Homo sapiens, UniProt Q92630).
T2 sequence (Q92630 1-601): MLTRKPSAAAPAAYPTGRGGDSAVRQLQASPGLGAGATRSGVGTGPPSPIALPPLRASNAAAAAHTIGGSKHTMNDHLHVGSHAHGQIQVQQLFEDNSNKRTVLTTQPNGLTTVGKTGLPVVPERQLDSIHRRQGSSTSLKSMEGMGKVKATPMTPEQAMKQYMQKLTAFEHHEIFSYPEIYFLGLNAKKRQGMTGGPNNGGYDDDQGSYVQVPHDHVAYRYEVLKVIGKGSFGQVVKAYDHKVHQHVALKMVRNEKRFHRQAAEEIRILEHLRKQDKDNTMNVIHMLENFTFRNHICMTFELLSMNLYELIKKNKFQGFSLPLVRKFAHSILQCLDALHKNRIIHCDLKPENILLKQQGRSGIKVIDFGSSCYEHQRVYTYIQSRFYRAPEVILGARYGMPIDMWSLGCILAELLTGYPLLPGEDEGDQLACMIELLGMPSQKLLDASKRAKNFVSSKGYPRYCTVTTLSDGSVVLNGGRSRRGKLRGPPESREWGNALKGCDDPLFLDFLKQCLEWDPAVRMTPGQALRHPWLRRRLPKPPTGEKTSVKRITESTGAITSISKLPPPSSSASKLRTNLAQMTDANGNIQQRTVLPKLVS
The data set can be described thus: Protein kinase assay ([γ-33P]-ATP, RS peptide substrate), DYRK2. In kind it is biochemical. The note with it: for IC50: 15 µM ATP; for inhibition at 10 µM: 10 µM compound, read-out: Inhibition at 10 µM DYRK2 (class symbol). How it is done:
as §1

The nature of data set [9]: Kinetic solubility, laser nephelometry. Format: physicochemical. The note with it: phosphate buffer pH 7.4, nephelometry. The method, then:
The kinetic solubility was determined using laser nephelometry. A stock solution of the test compounds in DMSO was prepared and further diluted with DMSO to achieve a dilution series of 8–12 solutions with different concentrations. The DMSO solutions (2 µL) were placed in a row on a 96-well plate and diluted with aqueous phosphate buffer pH 7.4 (198 µL). The well plate was scanned by a nephelometer (Nephelostar Plus, BMG Labtech, Ortenberg, Germany). Unsolved particles scatter the laser light which is detected by the nephelometer. The intensity of the scattered light is proportional to the particle concentration in the suspension. The intensity of the scattered light was plotted versus the concentration to obtain a kick off curve. The concentration at which the compounds began to precipitate was directly read out from the kick off curve.

The target in data set [10] is T3, DYRK1A (Homo sapiens, UniProt Q13627). Kind of data set: Protein kinase assay ([γ-33P]-ATP, RS peptide substrate), DYRK1A. Format: biochemical. The note with it: 15 µM ATP; read-out: IC50 DYRK 1A.
Data set [11] concerns the target T3, DYRK1A. The data set can be described thus: Ligand-lipophilicity efficiency (pIC50 minus calculated logP). The method, then: All new compounds were evaluated based on their physicochemical properties regarding Lipinski’s rule of five and the ligand-lipophilicity efficiency (LLE). Both concepts are used to assess the druglikeness of drug development candidates. […] LLE is calculated from pIC50 minus calculated logP [46].

Data set [12] deals with GSK-3. The data set can be described thus: Protein kinase assay ([γ-33P]-ATP, GS-1 substrate), GSK-3. As to conditions: for IC50: read-out: IC50 GSK3, 15 µM ATP.
Experimental: First, the kinases were incubated with 10 µM solutions of the compounds and the residual activities compared to controls were measured.
Controls were performed with appropriate dilutions of DMSO. The GS-1 and RS peptide substrates were obtained from Proteogenix (Oberhausbergen, France).
After 30 min incubation at 30 °C, the reaction was stopped by harvesting onto P81 phosphocellulose supernatant (Whatman) using a FilterMate harvester (Packard) and washing in 1% phosphoric acid. Scintillation fluid was added and the radioactivity measured in a Packard counter [52].
All data points for construction of dose response curves were recorded in triplicate.
Setting [13] is: pIC50 (DYRK1A) minus calculated logP.

CLK2, sequence (O35491 whole entry): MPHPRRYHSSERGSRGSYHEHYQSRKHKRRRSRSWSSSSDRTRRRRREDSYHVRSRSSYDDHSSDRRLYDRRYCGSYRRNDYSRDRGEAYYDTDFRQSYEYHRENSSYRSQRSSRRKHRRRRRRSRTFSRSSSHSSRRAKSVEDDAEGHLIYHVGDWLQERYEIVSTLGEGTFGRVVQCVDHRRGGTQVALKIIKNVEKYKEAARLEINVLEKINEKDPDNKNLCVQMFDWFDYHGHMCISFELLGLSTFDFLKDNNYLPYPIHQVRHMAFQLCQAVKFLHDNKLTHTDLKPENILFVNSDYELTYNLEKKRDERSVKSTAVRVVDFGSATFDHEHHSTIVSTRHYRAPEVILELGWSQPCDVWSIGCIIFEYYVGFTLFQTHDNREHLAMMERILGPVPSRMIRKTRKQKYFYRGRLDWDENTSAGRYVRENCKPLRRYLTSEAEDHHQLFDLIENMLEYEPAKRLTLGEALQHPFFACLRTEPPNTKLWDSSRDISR
CLK4, sequence (O35493 whole entry, the tested form may be a part): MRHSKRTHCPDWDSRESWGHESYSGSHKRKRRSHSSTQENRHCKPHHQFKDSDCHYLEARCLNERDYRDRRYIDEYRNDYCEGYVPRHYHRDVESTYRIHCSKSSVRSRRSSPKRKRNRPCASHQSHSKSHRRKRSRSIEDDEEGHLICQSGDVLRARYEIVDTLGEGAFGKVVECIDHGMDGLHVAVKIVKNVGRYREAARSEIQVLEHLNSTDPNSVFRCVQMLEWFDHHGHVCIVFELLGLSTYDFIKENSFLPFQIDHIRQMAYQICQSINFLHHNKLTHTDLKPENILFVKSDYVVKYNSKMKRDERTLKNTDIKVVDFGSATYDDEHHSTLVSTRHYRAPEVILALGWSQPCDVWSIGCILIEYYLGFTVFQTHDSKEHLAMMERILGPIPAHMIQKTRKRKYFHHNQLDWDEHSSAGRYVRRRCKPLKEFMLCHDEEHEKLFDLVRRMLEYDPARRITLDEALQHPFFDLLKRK
CLK3, sequence (O35492 whole entry): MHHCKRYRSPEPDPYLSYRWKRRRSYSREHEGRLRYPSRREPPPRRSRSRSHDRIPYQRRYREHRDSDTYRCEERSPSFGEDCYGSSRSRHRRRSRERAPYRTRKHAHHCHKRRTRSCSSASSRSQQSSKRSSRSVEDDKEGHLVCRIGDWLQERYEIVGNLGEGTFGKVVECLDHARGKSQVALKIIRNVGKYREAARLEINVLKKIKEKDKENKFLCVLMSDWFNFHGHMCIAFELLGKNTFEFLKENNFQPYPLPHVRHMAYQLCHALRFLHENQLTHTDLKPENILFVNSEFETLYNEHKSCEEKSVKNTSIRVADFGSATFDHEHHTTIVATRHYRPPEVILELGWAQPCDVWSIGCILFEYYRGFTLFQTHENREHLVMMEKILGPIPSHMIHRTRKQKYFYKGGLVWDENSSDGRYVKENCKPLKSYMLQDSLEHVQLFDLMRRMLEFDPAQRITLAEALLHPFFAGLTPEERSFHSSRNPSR
DYRK1B, sequence (Q9Y463 whole entry): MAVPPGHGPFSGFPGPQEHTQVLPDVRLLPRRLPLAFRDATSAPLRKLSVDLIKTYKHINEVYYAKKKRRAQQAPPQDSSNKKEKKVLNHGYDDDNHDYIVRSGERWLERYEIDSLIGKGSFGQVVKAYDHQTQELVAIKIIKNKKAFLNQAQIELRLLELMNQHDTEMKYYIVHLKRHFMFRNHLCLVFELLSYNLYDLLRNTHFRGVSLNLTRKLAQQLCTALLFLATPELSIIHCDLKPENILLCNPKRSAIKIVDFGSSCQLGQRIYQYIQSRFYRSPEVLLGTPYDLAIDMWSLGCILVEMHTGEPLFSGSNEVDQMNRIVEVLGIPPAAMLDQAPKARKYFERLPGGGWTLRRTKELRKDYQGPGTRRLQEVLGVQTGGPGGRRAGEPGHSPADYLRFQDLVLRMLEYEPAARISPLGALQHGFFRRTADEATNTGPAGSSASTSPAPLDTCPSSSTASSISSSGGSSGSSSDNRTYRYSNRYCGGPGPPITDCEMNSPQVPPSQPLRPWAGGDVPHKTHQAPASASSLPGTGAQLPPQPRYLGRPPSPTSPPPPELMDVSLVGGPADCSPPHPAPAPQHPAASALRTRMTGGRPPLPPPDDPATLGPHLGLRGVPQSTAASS

In the case of `N#Cc1c[nH]c2c(Br)cccc12` [Compound 6b, 7-Bromo-1H-indole-3-carbonitrile], the IC50 in data set [1] is 4000 nM; in [2], 5900 nM; in [3] it was more than 10 µM; in data set [4], more than 10 µM; in data set [5], more than 10 µM; in [6], 2900 nM. The compound further returned a half-inhibitory concentration (IC50) in data set [8] of more than 10 µM. Besides, the “Sexp., therm., pH 7.4” value in data set [7] is recorded as 136 ± 11 µM. Moreover, the “Sexp., kin., pH 7.4” value in data set [9] was 142 ± 14 µM.

As for `N#Cc1c[nH]c2c(I)cccc12` [Compound 6c, 7-Iodo-1H-indole-3-carbonitrile], the half-inhibitory concentration (IC50) in data set [1] was 1800 nM; in data set [2] it was 1800 nM; in data set [3], 8 µM; in [4], more than 10 µM; in [5] it was more than 10 µM; in [6] it was 1900 nM. This compound also came in with a half-maximal inhibitory concentration (IC50) in data set [8] of 8 µM. Moreover, in [7], the “Sexp., therm., pH 7.4” value was 45.2 (44.8–45.6) µM. For the same compound, in data set [9], the “Sexp., kin., pH 7.4” value is listed as 261 (254–267) µM.

Consider `N#Cc1c(-c2ccccc2)[nH]c2c(Br)cccc12` [Compound 6g, 7-Bromo-2-phenyl-1H-indole-3-carbonitrile], for which the half-inhibitory concentration (IC50) was 33 nM in [1]; 120 nM in [2]; 0.433 µM in data set [3]; more than 10 µM in [4]; more than 10 µM in data set [5]; 25 nM in data set [10]. In addition, the IC50 in data set [6] is 67 nM; in data set [8] it was more than 10 µM. Further, the LLE in [11] (Table S2) and in data set [11] (setting [13]) was 3.34 throughout. Further, the “Sexp., therm., pH 7.4” value in data set [7] is less than 0.5 µM. For the same compound, in data set [9], the “Sexp., kin., pH 7.4” value worked out at 14.8 ± 0.26 µM.

In the case of `N#Cc1c(-c2cccnc2)[nH]c2c(I)cccc12` [Compound 6p, 7-Iodo-2-(pyridin-3-yl)-1H-indole-3-carbonitrile], the IC50 in data set [1] is more than 10000 nM; in [2], 300 nM; in [3] it was more than 10 µM; in data set [10], 80 nM; in data set [6] it was 200 nM. For the same compound, the inhibition at 10 µM in data set [4], in data set [5] and in [8] was less than 20% throughout. Besides, the LLE in data set [11] (Table S2) and in data set [11] (setting [13]) was 3.89 each time. Further, in data set [9], the “Sexp., kin., pH 7.4” value is reported as 10.0 (7.21–12.9) µM.

In the case of `CC(C)c1[nH]c2c(I)cccc2c1C#N` [Compound 6q, 7-Iodo-2-isopropyl-1H-indole-3-carbonitrile], the concentration for half-maximal inhibition (IC50) is 100 nM in data set [1]; 530 nM in data set [2]; 0.7 µM in [3]; 1300 nM in [12]; more than 10 µM in data set [4]; more than 10 µM in [5]. Besides, the IC50 is 280 nM in [10], 100 nM in [6] and more than 10 µM in data set [8]. Also, the LLE in data set [11] (Table S2) is given as 2.61.

Regarding `Cn1cc(C#N)c2cccc(Br)c21` [Compound 13d, 7-Bromo-1-methyl-1H-indole-3-carbonitrile], the half-inhibitory concentration (IC50) is more than 10000 nM in data set [1]; more than 10000 nM in data set [2]; more than 10 µM in data set [3]; more than 10000 nM in data set [12]; more than 10 µM in data set [4]; more than 10 µM in data set [5]. The IC50 in [10] was 1900 nM; in data set [6] it was 3330 nM; in [8], more than 10 µM. Further, in [11] (Table S2), the LLE is listed as 2.80.

As to `Cn1c(-c2ccccc2)c(C#N)c2cccc(Br)c21` [Compound 13e, 7-Bromo-1-methyl-2-phenyl-1H-indole-3-carbonitrile], the IC50 in [1] is 1000 nM; in data set [2] it was 10000 nM; in data set [10], 2300 nM; in [6] it was more than 10000 nM. In addition, the inhibition at 10 µM is less than 20% in data set [3] (10 µM compound, read-out: Inhibition at 10 µM CLK2 (class symbol)); less than 20% in [4]; less than 20% in data set [5]; less than 20% in [8]. Further, the “Inhibition at 10 µM GSK3 (class symbol)” value in data set [12] (10 µM compound) was “- (-: less than 20% inhibition at 10 µM, IC50 was not determined)”. The LLE in [11] (Table S2) is given as 1.15.

Take `N#Cc1c(CC(O)CO)[nH]c2c(Cl)cccc12` (centres unmarked) [Compound 14, 7-Chloro-2-(2,3-dihydroxypropyl)-1H-indole-3-carbonitrile]: the IC50 in data set [1] stood at 2000 nM; in data set [2], 4200 nM; in data set [3] it was 10 µM; in data set [12], 2000 nM; in data set [10], 2000 nM; in data set [6], 2000 nM. Besides, the inhibition at 10 µM in [4], in data set [5] and in data set [8] was less than 20% in each case. The LLE in [11] (Table S2) and in data set [11] (setting [13]) was 4.59 in each case. In addition, the “Sexp., therm., pH 7.4” value in [7] is 3447 ± 182 ^c µM.
